The source of these data is patent publication US20210353631A1, “1,4-Benzoxazines for the Treatment of Cancers and Other Neurodegenerative Diseases” (Neugeneron LLC, priority 2020, published 2021).

Type in all cases: binding
One experiment deals with T1, CIT (Homo sapiens, UniProt O14578).
T1 construct: purchased DiscoveRx/Eurofin
Description: KINOMEscan kinome profiling (DiscoveRx/Eurofin platform). As to conditions: read-out: % control.

The target in a further experiment is T2, CLK1 (Homo sapiens, UniProt P49759).
T2 construct: purchased DiscoveRx/Eurofin
Described as above. To be noted: read-out: % control.

The next experiment addresses T3, CLK4 (Homo sapiens, UniProt Q9HAZ1).
T3 construct: purchased DiscoveRx/Eurofin
The description is as above. As to conditions: read-out: % control.

The next experiment deals with T4, CSK (Homo sapiens, UniProt P41240).
T4 construct: purchased DiscoveRx/Eurofin
The description is as above. To be noted: read-out: % control.

The next experiment deals with T5, CSNK1A1 (Homo sapiens, UniProt P48729).
T5 construct: purchased DiscoveRx/Eurofin
Described as above. To be noted: read-out: % control.

The next experiment has as its target T6, CSNK1D (Homo sapiens, UniProt P48730).
T6 construct: purchased DiscoveRx/Eurofin
The description is as above. As to conditions: read-out: % control.

The next experiment has as its target T7, CSNK1E (Homo sapiens, UniProt P49674).
T7 construct: purchased DiscoveRx/Eurofin
The experiment is described as above. To be noted: read-out: % control.

The next experiment addresses T8, CSNK1G2 (Homo sapiens, UniProt P78368).
T8 construct: purchased DiscoveRx/Eurofin
Described as above. To be noted: read-out: % control.

The target of another experiment is T9, CSNK2A1 (Homo sapiens, UniProt P68400).
T9 construct: purchased DiscoveRx/Eurofin
The description is as above. As to conditions: read-out: % control.

A further experiment addresses T10, CSNK2A2 (Homo sapiens, UniProt P19784).
T10 construct: purchased DiscoveRx/Eurofin
The experiment is described as above. To be noted: read-out: % control.

In a further experiment the target is T11, DAPK1 (Homo sapiens, UniProt P53355).
T11 construct: purchased DiscoveRx/Eurofin
The experiment is described as above. As to conditions: read-out: % control.

In another experiment the target is T12, DCAMKL3 (DCLK3) (Homo sapiens, UniProt Q9C098).
T12 construct: purchased DiscoveRx/Eurofin
Described as above. As to conditions: KINOMEscan DCAMKL3 (Entrez DCLK3), read-out: % control.

Another experiment addresses T13, DMPK2 (CDC42BPG) (Homo sapiens, UniProt Q6DT37).
T13 construct: purchased DiscoveRx/Eurofin
Described as above. To be noted: KINOMEscan DMPK2 (Entrez CDC42BPG), read-out: % control.

For a further experiment, the target named is T14, DRAK1/STK17a (Homo sapiens, UniProt Q9UEE5).
T14 construct: purchased DiscoveRx/Eurofin
Described as above. As to conditions: KINOMEscan DRAK1 (Entrez STK17A), read-out: % control.

For another experiment, the target named is T15, DRAK2 (STK17B) (Homo sapiens, UniProt O94768).
T15 construct: purchased DiscoveRx/Eurofin
The description is as above.

For a further experiment, the target named is T16, DYRK1A (Homo sapiens, UniProt Q13627).
T16 construct: purchased DiscoveRx/Eurofin
The description is as above. As to conditions: read-out: % control.

A further experiment concerns the target T17, DYRK1B (Homo sapiens, UniProt Q9Y463).
T17 construct: purchased DiscoveRx/Eurofin
The experiment is described as above. To be noted: read-out: % control.

The target of the next experiment is T18, DYRK2 (Homo sapiens, UniProt Q92630).
T18 construct: purchased DiscoveRx/Eurofin
The description is as above. To be noted: read-out: % control.

Another experiment addresses T19, EGFR(G719C) (Homo sapiens, UniProt P00533, G719C).
T19 construct: purchased DiscoveRx/Eurofin
The experiment is described as above. To be noted: read-out: % control.

In experiment [1] the target is T20, EGFR(L747-S752del, P753S) (Homo sapiens, UniProt P00533, DEL747-752/P753S).
T20 construct: purchased DiscoveRx/Eurofin
Described as above. As to conditions: read-out: % control.

The next experiment has as its system EGFR(L747-T751del,Sins). The experiment is described as above. As to conditions: 1 uM.
The next experiment concerns the target GSK3β (Homo sapiens, UniProt P49841). Description: Kinome profiling of NGN-006. As to conditions: kinase that HSB-13 inhibits.

T15 sequence (O94768 whole entry): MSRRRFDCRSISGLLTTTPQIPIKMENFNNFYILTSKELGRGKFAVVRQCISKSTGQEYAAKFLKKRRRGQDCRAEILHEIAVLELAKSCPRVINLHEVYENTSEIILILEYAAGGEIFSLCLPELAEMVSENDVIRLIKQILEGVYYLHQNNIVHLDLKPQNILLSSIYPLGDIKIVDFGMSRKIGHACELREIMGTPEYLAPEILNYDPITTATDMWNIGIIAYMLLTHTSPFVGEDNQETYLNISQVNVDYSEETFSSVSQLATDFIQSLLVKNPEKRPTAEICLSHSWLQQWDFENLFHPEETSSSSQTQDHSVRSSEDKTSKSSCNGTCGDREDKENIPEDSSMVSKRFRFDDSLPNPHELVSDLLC
T12 sequence (Q9C098 whole entry): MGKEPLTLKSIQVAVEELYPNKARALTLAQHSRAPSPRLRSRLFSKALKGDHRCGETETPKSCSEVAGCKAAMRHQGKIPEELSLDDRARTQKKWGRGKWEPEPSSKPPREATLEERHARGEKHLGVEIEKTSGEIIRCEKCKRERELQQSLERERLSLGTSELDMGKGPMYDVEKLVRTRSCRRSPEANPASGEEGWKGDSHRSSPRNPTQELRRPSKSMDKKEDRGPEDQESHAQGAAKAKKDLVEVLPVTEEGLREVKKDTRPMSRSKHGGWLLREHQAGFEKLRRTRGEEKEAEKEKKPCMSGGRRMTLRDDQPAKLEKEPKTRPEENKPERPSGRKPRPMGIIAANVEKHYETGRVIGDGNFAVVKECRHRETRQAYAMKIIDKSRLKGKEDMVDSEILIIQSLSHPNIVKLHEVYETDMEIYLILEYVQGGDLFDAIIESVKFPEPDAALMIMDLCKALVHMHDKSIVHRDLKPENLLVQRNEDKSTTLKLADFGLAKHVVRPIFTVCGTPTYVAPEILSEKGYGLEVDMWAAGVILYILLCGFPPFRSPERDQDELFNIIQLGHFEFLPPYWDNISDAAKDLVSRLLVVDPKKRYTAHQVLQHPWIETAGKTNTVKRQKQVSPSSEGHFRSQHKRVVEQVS
T10 sequence (P19784 whole entry): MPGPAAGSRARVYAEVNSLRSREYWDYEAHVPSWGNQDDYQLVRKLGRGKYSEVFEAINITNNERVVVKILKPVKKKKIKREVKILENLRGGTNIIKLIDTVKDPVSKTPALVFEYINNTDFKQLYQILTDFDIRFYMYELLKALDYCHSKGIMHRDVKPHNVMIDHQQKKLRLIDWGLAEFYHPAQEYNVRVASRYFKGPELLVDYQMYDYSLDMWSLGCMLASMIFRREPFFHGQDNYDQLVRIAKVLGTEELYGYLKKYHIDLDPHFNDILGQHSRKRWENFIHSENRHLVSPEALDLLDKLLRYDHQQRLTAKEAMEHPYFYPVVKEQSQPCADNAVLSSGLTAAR
T4 sequence (P41240 whole entry): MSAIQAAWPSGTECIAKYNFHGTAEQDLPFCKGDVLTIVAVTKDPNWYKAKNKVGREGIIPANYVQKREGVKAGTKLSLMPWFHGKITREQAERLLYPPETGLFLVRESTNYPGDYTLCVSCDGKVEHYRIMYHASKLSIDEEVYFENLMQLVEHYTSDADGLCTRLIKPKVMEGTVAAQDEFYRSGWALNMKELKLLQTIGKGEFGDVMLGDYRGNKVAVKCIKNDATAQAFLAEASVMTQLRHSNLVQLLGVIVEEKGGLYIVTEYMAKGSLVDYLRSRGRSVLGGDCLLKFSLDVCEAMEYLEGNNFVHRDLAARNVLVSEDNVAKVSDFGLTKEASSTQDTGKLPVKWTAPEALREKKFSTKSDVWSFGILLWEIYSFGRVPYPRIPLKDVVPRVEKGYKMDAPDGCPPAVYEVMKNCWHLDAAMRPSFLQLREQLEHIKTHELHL
T1 sequence (O14578 whole entry): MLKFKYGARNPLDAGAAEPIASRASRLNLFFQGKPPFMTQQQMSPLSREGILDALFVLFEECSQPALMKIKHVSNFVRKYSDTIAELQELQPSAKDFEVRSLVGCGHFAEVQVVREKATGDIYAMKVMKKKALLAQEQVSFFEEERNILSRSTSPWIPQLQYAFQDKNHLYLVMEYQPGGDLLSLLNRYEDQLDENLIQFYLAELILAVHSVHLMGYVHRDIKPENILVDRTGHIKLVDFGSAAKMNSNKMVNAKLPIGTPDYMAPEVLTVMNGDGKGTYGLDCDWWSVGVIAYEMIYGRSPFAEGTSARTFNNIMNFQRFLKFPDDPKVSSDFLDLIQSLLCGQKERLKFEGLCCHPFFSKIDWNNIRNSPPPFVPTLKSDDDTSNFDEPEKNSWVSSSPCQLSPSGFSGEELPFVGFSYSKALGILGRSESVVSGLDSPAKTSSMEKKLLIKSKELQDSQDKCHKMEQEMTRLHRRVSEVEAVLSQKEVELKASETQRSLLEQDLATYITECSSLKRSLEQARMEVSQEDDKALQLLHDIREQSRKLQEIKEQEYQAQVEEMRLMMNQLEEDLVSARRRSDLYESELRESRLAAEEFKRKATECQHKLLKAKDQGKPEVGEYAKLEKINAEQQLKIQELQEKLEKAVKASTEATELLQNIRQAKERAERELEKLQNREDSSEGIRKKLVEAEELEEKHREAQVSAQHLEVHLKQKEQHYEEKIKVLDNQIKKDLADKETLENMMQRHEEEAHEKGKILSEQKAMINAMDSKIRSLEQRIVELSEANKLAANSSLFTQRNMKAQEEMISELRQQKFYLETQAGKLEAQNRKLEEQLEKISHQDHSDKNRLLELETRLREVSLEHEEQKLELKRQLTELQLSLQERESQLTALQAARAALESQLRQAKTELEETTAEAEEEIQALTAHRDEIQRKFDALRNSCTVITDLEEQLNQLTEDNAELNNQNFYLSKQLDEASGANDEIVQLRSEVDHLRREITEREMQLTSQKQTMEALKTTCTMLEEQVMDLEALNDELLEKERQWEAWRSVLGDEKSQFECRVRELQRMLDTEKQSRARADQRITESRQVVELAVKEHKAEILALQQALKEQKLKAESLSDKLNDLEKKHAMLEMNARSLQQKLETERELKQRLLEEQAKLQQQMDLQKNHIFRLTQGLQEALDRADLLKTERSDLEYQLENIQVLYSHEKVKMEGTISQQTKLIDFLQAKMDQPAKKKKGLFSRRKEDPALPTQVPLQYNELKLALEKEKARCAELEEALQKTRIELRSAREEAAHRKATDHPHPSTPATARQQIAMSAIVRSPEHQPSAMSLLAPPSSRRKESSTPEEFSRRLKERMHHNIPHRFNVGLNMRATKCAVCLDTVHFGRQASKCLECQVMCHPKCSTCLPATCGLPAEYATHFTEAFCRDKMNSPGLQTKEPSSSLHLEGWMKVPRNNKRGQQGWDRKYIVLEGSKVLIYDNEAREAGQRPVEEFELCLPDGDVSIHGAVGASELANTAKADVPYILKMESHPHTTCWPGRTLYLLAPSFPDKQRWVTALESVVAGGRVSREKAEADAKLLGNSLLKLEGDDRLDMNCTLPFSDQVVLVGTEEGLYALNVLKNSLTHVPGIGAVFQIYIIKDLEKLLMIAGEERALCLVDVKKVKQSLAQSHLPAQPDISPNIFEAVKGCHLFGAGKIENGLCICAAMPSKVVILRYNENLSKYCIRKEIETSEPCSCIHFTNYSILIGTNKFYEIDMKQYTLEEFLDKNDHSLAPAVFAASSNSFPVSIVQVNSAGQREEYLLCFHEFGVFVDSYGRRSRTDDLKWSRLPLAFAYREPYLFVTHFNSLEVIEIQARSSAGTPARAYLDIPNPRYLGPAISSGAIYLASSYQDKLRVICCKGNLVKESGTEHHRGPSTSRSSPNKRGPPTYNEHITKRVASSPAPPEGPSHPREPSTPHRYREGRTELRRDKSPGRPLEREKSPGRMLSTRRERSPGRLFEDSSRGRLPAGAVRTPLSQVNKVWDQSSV
Chain of GSK3β (P49841 whole entry): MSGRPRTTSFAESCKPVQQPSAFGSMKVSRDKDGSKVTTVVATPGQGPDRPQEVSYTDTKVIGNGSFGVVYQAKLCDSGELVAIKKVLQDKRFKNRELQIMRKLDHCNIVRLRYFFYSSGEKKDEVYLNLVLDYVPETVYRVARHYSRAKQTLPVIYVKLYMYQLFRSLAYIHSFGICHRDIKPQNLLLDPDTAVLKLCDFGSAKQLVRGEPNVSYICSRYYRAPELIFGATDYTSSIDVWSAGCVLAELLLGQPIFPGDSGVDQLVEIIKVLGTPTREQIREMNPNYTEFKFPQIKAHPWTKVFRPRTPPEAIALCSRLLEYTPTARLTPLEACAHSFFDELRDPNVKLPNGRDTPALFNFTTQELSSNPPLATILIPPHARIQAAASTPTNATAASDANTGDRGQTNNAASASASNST
T7 sequence (P49674 whole entry): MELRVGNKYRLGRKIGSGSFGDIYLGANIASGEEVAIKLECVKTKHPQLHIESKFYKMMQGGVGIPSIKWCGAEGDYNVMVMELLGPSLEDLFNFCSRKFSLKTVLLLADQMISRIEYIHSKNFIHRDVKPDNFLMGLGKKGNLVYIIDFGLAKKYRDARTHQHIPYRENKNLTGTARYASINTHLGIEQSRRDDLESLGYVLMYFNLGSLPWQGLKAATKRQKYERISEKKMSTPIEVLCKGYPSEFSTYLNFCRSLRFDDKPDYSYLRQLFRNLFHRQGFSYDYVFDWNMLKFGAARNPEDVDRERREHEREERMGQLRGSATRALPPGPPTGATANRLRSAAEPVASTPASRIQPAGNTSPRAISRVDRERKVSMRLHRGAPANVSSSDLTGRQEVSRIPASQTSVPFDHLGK
T5 sequence (P48729 whole entry): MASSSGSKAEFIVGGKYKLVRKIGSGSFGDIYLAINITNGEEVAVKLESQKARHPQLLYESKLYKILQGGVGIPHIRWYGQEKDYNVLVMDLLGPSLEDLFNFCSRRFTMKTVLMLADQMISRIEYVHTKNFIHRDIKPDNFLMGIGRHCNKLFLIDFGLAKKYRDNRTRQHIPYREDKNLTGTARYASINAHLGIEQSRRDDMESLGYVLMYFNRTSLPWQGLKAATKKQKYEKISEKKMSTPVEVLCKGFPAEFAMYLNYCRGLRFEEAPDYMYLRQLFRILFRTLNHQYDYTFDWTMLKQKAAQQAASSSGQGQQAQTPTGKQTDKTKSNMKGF

As to `Nc1ccc2c(c1)NC(=O)/C(=C/c1ccc(Cl)cc1)O2` [NGN-006, (2Z)-6-amino-2-[(4-chlorophenyl)methylidene]-3,4-dihydro-2H-1,4-benzoxazin-3-one], the remaining binding at 1 µM on CIT worked out at 100%; on CLK1 it was 79%; on CLK4, 100%; on CSK, 97%; at CSNK1A1, 100%; at CSNK1D, 100%. Besides, the remaining binding at 1 µM at CSNK1E was 89%; on CSNK1G2, 100%; at CSNK2A1 it was 100%; at CSNK2A2, 100%; at DAPK1, 100%; on DCAMKL3 (DCLK3), 100%. The remaining binding at 1 µM on DMPK2 (CDC42BPG) came to 96%; on DRAK1/STK17a it was 26%; on DRAK2 (STK17B) (KINOMEscan DRAK2 (Entrez STK17B), 1 uM, read-out: % control), 83%; at DYRK1A, 100%; at DYRK1B it was 100%; on DYRK2, 100%. For the same compound, the remaining binding at 1 µM (at EGFR(G719C); in experiment [1]) was 100% throughout. Further, the “kinase inhibition (in words)” value on DRAK2 (STK17B) (closely-related DRAK2 protein) is given as “not inhibited”; at GSK3β it was “does not inhibit”. In the experiment on EGFR(L747-T751del,Sins), the “% control” value is given as 100%.
